The assay concerns the target alpha-enolase (ENO1) (Homo sapiens, UniProt P06733). Briefly: MST with NT-647-NHS labelled recombinant ENO1. In kind it is binding.

Sequence of alpha-enolase (ENO1) (P06733 2-434): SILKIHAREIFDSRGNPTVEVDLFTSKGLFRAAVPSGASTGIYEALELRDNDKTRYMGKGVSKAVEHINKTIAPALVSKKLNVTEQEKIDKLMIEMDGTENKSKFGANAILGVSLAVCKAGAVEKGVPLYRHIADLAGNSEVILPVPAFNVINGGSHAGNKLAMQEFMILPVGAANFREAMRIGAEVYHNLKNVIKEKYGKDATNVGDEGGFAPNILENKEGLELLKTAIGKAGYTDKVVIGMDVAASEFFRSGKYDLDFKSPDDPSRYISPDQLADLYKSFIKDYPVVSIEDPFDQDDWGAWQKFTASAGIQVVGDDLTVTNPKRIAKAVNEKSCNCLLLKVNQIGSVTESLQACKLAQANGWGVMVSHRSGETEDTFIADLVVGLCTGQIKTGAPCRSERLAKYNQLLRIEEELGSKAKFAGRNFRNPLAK

In general, Kd refers to the equilibrium constant for the complex coming apart. In the case of `O=c1cc(-c2ccccc2)oc2cc(O)cc(O)c12` [compound 1, chrysin], the Kd is 15 µM.

(Values after PMC11873566 (Acta Pharmaceutica Sinica. B, 2024).)
